Laboratory results published in ChEMBL document CHEMBL1150033, “The squalestatins: effects of changes at the allylic centre in the C1 sidechain” (Bioorg Med Chem Lett, 1994).

System: not listed separately
Assay: Lipid lowering ability after intravenous administration of 10 mg/Kg single dose
Type: functional
Conditions: not given

SMILES	Lowering
C=C(CC[C@]12O[C@H](C(=O)O)[C@@](O)(C(=O)O)[C@](C(=O)O)(O1)[C@H](O)[C@H]2O)[C@@H](OC(C)=O)[C@H](C)Cc1ccccc1	30%

System: not listed separately
Assay: Percent decrease in serum cholesterol levels after intravenous administration of 1 mg/Kg dose for 7 days
Type: functional
Conditions: not given

SMILES	Decrease
C=C(CC[C@]12O[C@H](C(=O)O)[C@@](O)(C(=O)O)[C@](C(=O)O)(O1)[C@H](OC(=O)/C=C/[C@@H](C)C[C@@H](C)CC)[C@H]2O)[C@@H](OC(C)=O)[C@H](C)Cc1ccccc1 [ZARAGOZIC ACIDS A]	60%

Molecular target: T1, Squalene synthase (Rattus norvegicus, UniProt Q02769)
T1 sequence (Q02769 whole entry): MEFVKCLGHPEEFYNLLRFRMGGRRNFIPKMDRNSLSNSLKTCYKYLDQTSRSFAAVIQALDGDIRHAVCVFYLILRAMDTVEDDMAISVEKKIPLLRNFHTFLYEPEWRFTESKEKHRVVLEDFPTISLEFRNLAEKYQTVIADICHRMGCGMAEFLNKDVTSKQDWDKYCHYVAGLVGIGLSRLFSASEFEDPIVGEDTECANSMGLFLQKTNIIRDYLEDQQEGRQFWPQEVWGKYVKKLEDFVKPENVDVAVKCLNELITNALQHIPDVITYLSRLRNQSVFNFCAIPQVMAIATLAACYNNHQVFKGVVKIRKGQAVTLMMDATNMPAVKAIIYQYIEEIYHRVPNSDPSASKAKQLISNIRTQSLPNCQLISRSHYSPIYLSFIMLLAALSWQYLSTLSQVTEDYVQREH
Assay: Inhibitory concentration against mammalian Squalene synthase
Conditions: not given

SMILES	IC50
C=C(CC[C@]12O[C@H](C(=O)O)[C@@](O)(C(=O)O)[C@](C(=O)O)(O1)[C@H](O)[C@H]2O)[C@@H](O)[C@H](C)Cc1ccccc1	252 nM
C=C(CC[C@]12O[C@H](C(=O)O)[C@@](O)(C(=O)O)[C@](C(=O)O)(O1)[C@H](O)[C@H]2O)[C@@H](OC)[C@H](C)Cc1ccccc1	500 nM
C=CCO[C@H](C(=C)CC[C@]12O[C@H](C(=O)O)[C@@](O)(C(=O)O)[C@](C(=O)O)(O1)[C@H](O)[C@H]2O)[C@H](C)Cc1ccccc1	27 nM
C=C(CC[C@]12O[C@H](C(=O)O)[C@@](O)(C(=O)O)[C@](C(=O)O)(O1)[C@H](O)[C@H]2O)[C@H](NC(C)=O)[C@H](C)Cc1ccccc1	> 10000 nM
C=C(CC[C@]12O[C@H](C(=O)O)[C@@](O)(C(=O)O)[C@](C(=O)O)(O1)[C@H](O)[C@H]2O)[C@@H](OC(=O)C(C)(C)C)[C@H](C)Cc1ccccc1	2290 nM
C=C(CC[C@]12O[C@H](C(=O)O)[C@@](O)(C(=O)O)[C@](C(=O)O)(O1)[C@H](OC(=O)/C=C/[C@@H](C)C[C@@H](C)CC)[C@H]2O)[C@@H](O)[C@H](C)Cc1ccccc1	5 nM
C=C(CC[C@]12O[C@H](C(=O)O)[C@@](O)(C(=O)O)[C@](C(=O)O)(O1)[C@H](O)[C@H]2O)[C@@H](OC(=O)c1ccccc1)[C@H](C)Cc1ccccc1	532 nM
C=C(CC[C@]12O[C@H](C(=O)O)[C@@](O)(C(=O)O)[C@](C(=O)O)(O1)[C@H](O)[C@H]2O)[C@@H](OCC)[C@H](C)Cc1ccccc1	40 nM
C#CCO[C@H](C(=C)CC[C@]12O[C@H](C(=O)O)[C@@](O)(C(=O)O)[C@](C(=O)O)(O1)[C@H](O)[C@H]2O)[C@H](C)Cc1ccccc1	1200 nM
CC(=O)NC/C(=C\[C@H](C)Cc1ccccc1)CC[C@]12O[C@H](C(=O)O)[C@@](O)(C(=O)O)[C@](C(=O)O)(O1)[C@H](O)[C@H]2O	> 10000 nM
C=C(CC[C@]12O[C@H](C(=O)O)[C@@](O)(C(=O)O)[C@](C(=O)O)(O1)[C@H](O)[C@H]2O)[C@@H](OCCC)[C@H](C)Cc1ccccc1	600 nM
C=C(CC[C@]12O[C@H](C(=O)O)[C@@](O)(C(=O)O)[C@](C(=O)O)(O1)[C@H](O)[C@H]2O)[C@@H](OC(C)C)[C@H](C)Cc1ccccc1	49 nM
C=C(CC[C@]12O[C@H](C(=O)O)[C@@](O)(C(=O)O)[C@](C(=O)O)(O1)[C@H](O)[C@H]2O)[C@@H](OCc1ccccc1)[C@H](C)Cc1ccccc1	1420 nM
C=C(CC[C@]12O[C@H](C(=O)O)[C@@](O)(C(=O)O)[C@](C(=O)O)(O1)[C@H](O)[C@H]2O)[C@@H](OCC1CC1)[C@H](C)Cc1ccccc1	33 nM
C=C(CC[C@]12O[C@H](C(=O)O)[C@@](O)(C(=O)O)[C@](C(=O)O)(O1)[C@H](O)[C@H]2O)[C@@H](NC(C)=O)[C@H](C)Cc1ccccc1	2220 nM
CC(=O)NC/C(=C\[C@@H](C)Cc1ccccc1)CC[C@]12O[C@H](C(=O)O)[C@@](O)(C(=O)O)[C@](C(=O)O)(O1)[C@H](O)[C@H]2O	> 10000 nM

System: not listed separately
Assay: Effective dose required for lipid lowering property in marmosets by oral administration for 7 days
Type: functional
Conditions: 168 h

SMILES	ED50
C=C(CC[C@]12O[C@H](C(=O)O)[C@@](O)(C(=O)O)[C@](C(=O)O)(O1)[C@H](OC(=O)/C=C/[C@@H](C)C[C@@H](C)CC)[C@H]2O)[C@@H](OC(C)=O)[C@H](C)Cc1ccccc1 [ZARAGOZIC ACIDS A]	10 mg/kg/day
